Target: T1, PfENT1 (Plasmodium falciparum, UniProt Q8IDM6)
T1 construct: expressed in transfected cells; host or cells: fui1Δ yeast (Saccharomyces cerevisiae), co-expressing GFP
Assay type: cell-based
Conditions: primary HTS, compounds at 10 μM, 125 μM 5-FUrd
Method: A yeast-based high throughput screening (HTS) assay was used to identify compounds that inhibit PfENT1. The compounds described in this application were identified by screening four commercially available, chemical compound libraries obtained from Dr. Donald Landry's laboratory (Department of Medicine, Columbia University). These libraries contain approximately 80,000 unique chemical entities.
In the primary screen the compounds were tested at a concentration of 10 μM. Hits were identified by the growth of fui1Δ yeast expressing PfENT1 and Green Fluorescent Protein (GFP) in the presence of the cytotoxic nucleoside 5-fluorouridine (5-FUrd). 5-FUrd is transported by PfENT1. PfENT1 expressing fui1Δ yeast will only grow in the presence of 125 μM 5-FUrd if a PfENT1 inhibitor blocks the uptake of 5-FUrd into the yeast. Significant yeast growth in the HTS in 384 well plates was determined by two criteria: 1) turbidity as determined by the optical density at 620 nm (OD620) and 2) GFP fluorescence intensity. […] Hits had to be positive by both criteria.

T1 sequence (Q8IDM6 whole entry): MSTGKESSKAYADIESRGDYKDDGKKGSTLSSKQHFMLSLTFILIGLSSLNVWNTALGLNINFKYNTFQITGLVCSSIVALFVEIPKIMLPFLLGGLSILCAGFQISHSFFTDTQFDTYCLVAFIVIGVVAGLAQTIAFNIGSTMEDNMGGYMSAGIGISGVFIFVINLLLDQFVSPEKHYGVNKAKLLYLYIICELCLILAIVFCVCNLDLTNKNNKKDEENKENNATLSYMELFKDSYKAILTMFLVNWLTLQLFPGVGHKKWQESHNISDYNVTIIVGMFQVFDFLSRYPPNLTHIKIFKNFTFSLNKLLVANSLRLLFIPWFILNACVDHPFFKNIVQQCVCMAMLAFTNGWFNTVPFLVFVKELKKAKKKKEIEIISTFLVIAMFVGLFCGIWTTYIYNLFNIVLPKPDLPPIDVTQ

Row | Compound | Avg Normalized % maximal activity
1 | Cc1cc(-c2nc3ncccc3o2)ccc1NC(=O)c1ccco1 [compound 41, N-(2-methyl-4-[1,3]oxazolo[4,5-b]pyridin-2-ylphenyl)-2-furamide] | 10.28%
2 | O=C(Nc1ccc(-c2nnc(-c3ccccc3)o2)cc1)C1CCCO1 (stereo not drawn) [compound 42, N-[4-(5-phenyl-1,3,4-oxadiazol-2-yl)phenyl]tetrahydro-2-furancarboxamide] | 10.16%
3 | O=C(NC(=O)c1ccccc1)Nc1cc(N2CCOCC2)ncn1 [compound 43, N-({[6-(4-morpholinyl)-4-pyrimidinyl]amino}carbonyl) benzamide] | 9.52%
4 | Cc1cccc(C(=O)Nc2ccc(-c3nnc(-c4ccco4)o3)cc2)c1 [compound 44, N-{4-[5-(2-furyl)-1,3,4-oxadiazol-2-yl]phenyl}-3-methylbenzamide] | 9.07%
5 | O=C(CSc1nnc(-c2ccc(Cl)cc2Cl)o1)N1CCCCC1 [compound 45, 1-({[5-(2,4-dichlorophenyl)-1,3,4-oxadiazol-2-yl]thio}acetyl)piperidine] | 8.97%
6 | Cc1nnc(SCc2csc(-c3ccc4c(c3)OCO4)n2)s1 [compound 46, 2-({[2-(1,3-benzodioxol-5-yl)-1,3-thiazol-4-yl]methyl}thio)-5-methyl-1,3,4-thiadiazole] | 8.94%
7 | CCOCc1nnc(NC(=O)c2ccc(OC)cc2)s1 [compound 47] | 8.66%
8 | CCc1ccc(C(C)NC(=O)c2nc[nH]n2)cc1 (stereo not drawn) [compound 48, N-[1-(4-ethylphenyl)ethyl]-1H-1,2,4-triazole-3-carboxamide] | 8.44%
9 | O=C(Nc1ccc(-c2nc3ccccc3o2)cc1)C1CCCO1 (stereo not drawn) [compound 49, N-[4-(1,3-benzoxazol-2-yl)phenyl]tetrahydro-2-furancarboxamide] | 8.36%
10 | CCOc1ccc(N(CC(=O)N2CCN(C)CC2)S(C)(=O)=O)cc1 [compound 50] | 8.23%
11 | CCOC(=O)c1cc(NC(=O)c2ccco2)ccc1N1CCOCC1 [compound 51, ethyl 5-(2-furoylamino)-2-morpholin-4-ylbenzoate] | 8.11%
12 | COC(=O)c1ccccc1NC(=O)c1cccc(NC(=O)C(C)C)c1 [compound 52] | 8.03%
13 | COCc1cc(C)nc2sc(C(=O)Nc3cccc(OC)c3)c(N)c12 [compound 53, 3-amino-4-(methoxymethyl)-N-(3-methoxyphenyl)-6-methylthieno [2,3-b]pyridine-2-carboxamide] | 7.94%
14 | COc1ccc(-c2cnc3ccccc3n2)cc1NC(=O)c1ccco1 [compound 54, N-[2-methoxy-5-(2-quinoxalinyl)phenyl]-2-furamide] | 7.83%
15 | Cc1cccn2c(=O)c3cc(C(=O)NC4CCCC4)sc3nc12 [compound 55, N-cyclopentyl-9-methyl-4-oxo-4H-pyrido[1,2-a]thieno[2,3-d] pyrimidine-2-carboxamide] | 7.75%
16 | O=C(CSc1nnc2ccc3ccccc3n12)Nc1ccccc1F [compound 56, N-(2-fluorophenyl)-2-([1,2,4]triazolo[4,3-a]quinolin-1-ylthio)acetamide] | 7.69%
17 | CCN(CC)C(=O)c1ccc(-c2ccc(N3CCOCC3)c3ccccc23)nn1 [compound 57] | 7.64%
18 | COc1ccc(-c2nc3ccccc3s2)cc1NC(=O)c1cccnc1 [compound 58, N-[5-(1,3-benzothiazol-2-yl)-2-methoxyphenyl] nicotinamide] | 7.63%
19 | Cn1nc(-c2ccc(C(=O)N3CCCCC3)cc2)c2ccccc2c1=O [compound 59, 2-methyl-4-[4-(1-piperidinylcarbonyl)phenyl]-1(2H)-phthalazinone] | 7.59%
20 | Cc1ccc2c(Cl)c(C(=O)Nc3cccnc3)sc2c1 [compound 60, 3-chloro-6-methyl-N-3-pyridinyl-1-benzothiophene-2-carboxamide] | 7.53%
21 | CC1(C)CC(=O)c2sc(NC(=O)c3ccccc3F)nc2C1 [compound 61, N-(5,5-dimethyl-7-oxo-4,5,6,7-tetrahydro-1,3-benzothiazol-2-yl)-2-fluorobenzamide] | 7.27%
22 | O=C(Cc1cccc2ccccc12)Nc1nncs1 [compound 62, 2-(1-naphthyl)-N-1,3,4-thiadiazol-2-ylacetamide] | 7.27%
23 | COc1ccc(OC)c(Nc2nc(=O)c3cccnc3s2)c1 [compound 63, 2-[(2,5-dimethoxyphenyl)amino]-4H-pyrido[3,2-e][1,3] thiazin-4-one] | 7.19%

Row | Compound | Avg Normalized % maximal activity
24 | CCOc1cc(-c2noc(CCCC(=O)N3CCCCC3)n2)ccc1OC [compound 64, 1-{4-[3-(3-ethoxy-4-methoxyphenyl)-1,2,4-oxadiazol-5-yl]butanoyl}piperidine] | 7.14%
25 | Cc1ccnc(NC(=O)c2cccc(NC(=O)c3ccco3)c2)c1 [compound 65, N-(3-{[(4-methyl-2-pyridinyl)amino]carbonyl}phenyl)-2-furamide] | 7.09%
26 | CCC(=O)c1ccc(/C=C/c2nc3ccccc3n2C)o1 [compound 66, 1-{5-[2-(1-methyl-1H-benzimidazol-2-yl)vinyl]-2-furyl}-1-propanone] | 7.04%
27 | COc1ccc(-c2cc3ccccc3oc2=O)cc1NC(=O)c1cccs1 [compound 67, N-[2-methoxy-5-(2-oxo-2H-chromen-3-yl)phenyl]-2-thiophenecarboxamide] | 6.98%
28 | CC(C)(C)c1nnc(NC(=O)c2cccc(Cl)c2)s1 [compound 68] | 6.79%
29 | COc1ccccc1CN1CCN(Cc2ccccn2)CC1 [compound 69, 1-(2-methoxybenzyl)-4-(2-pyridinylmethyl) piperazine] | 6.74%
30 | O=C(Nc1ccc(C(=O)N2CCCCC2)cc1)c1cc2ccccc2oc1=O [compound 70, 2-oxo-N-[4-(1-piperidinylcarbonyl)phenyl]-2H-chromene-3-carboxamide] | 6.71%
31 | O=C(CCCN1C(=O)c2cccc3cccc(c23)C1=O)N1CCCCC1 [compound 71, 2-[4-oxo-4-(1-piperidinyl)butyl]-1H-benzo[de]isoquinoline-1,3(2H)-dione] | 6.67%
32 | COc1cc2c(cc1OC)-c1cc3ccc(OC)c(OC)c3c[n+]1CC2 [compound 72] | 6.56%
33 | COC(=O)c1cc(NC(=O)c2cc3ccccc3o2)ccc1N1CCOCC1 [compound 73, methyl 5-[(1-benzofuran-2-ylcarbonyl)amino]-2-morpholin-4-ylbenzoate] | 6.43%
34 | C#C[C@]1(O)CC[C@H]2[C@@H]3CCC4=C(CCC(=O)C4)[C@H]3CC[C@@]21C [compound 74] | 6.35%
35 | Cc1cc(C)cc(C(=O)Nc2cccc(NC(=O)c3ccco3)c2)c1 [compound 75, N-{3-[(3,5-dimethylbenzoyl)amino]phenyl}-2-furamide] | 6.27%
36 | O=C(Nc1cccc(NC(=O)c2ccco2)c1)c1cccc(Br)c1 [compound 76, N-{3-[(3-bromobenzoyl)amino]phenyl}-2-furamide] | 6.23%
37 | CC(C(=O)O)c1ccc(-c2ccccc2)c(F)c1 (stereo not drawn) [compound 77] | 6.18%
38 | COc1ccc(NC(=O)COc2ccc3ccc(=O)oc3c2)cc1 [compound 78, N-(4-methoxyphenyl)-2-[(2-oxo-2H-chromen-7-yl)oxy]acetamide] | 6.16%
39 | CCOC(=O)c1ccc(NC(=O)c2nn(CC)cc2Br)cc1 [compound 79, ethyl 4-{[(4-bromo-1-ethyl-1H-pyrazol-3-yl)carbonyl]amino}benzoate] | 6.01%
40 | COc1ccc(Cl)cc1C(=O)Nc1cccc(-c2nnc(-c3ccco3)o2)c1 [compound 80, 5-chloro-N-{3-[5-(2-furyl)-1,3,4-oxadiazol-2-yl]phenyl}-2-methoxybenzamide] | 5.99%
41 | C1CCN2C[C@@H]3C[C@@H](CN4CCCC[C@@H]34)[C@H]2C1.O=S(=O)(O)O [compound 81] | 5.81%
42 | O=P1(N(CCCl)CCCl)NCCCO1 (stereo not drawn) [compound 82] | 5.76%
43 | CCOc1ccccc1C(=O)Nc1nc(C)c(C(=O)N(C)C)s1 [compound 83, 2-[(2-ethoxybenzoyl)amino]-N,N,4-trimethyl-1,3-thiazole-5-carboxamide] | 5.75%
44 | NCCc1cc(O)c(O)cc1O [compound 84] | 5.72%
45 | O=C(Nc1ccc2oc(-c3cccnc3)nc2c1)c1ccc(Br)o1 [compound 85, 5-bromo-N-[2-(3-pyridinyl)-1,3-benzoxazol-5-yl]-2-furamide] | 5.64%
